According to article doi:10.1101/261990v1 (biorxiv, 2018):

Key:
[1] = target: T1, MGIC (Myoinhibitory peptide-Gated Ion Channel; ENaC5) (Platynereis dumerilii, UniProt A0A2S1B6I3); assay: two-electrode voltage clamp, Xenopus oocytes; type: cell-based
T1 sequence (A0A2S1B6I3 1-589): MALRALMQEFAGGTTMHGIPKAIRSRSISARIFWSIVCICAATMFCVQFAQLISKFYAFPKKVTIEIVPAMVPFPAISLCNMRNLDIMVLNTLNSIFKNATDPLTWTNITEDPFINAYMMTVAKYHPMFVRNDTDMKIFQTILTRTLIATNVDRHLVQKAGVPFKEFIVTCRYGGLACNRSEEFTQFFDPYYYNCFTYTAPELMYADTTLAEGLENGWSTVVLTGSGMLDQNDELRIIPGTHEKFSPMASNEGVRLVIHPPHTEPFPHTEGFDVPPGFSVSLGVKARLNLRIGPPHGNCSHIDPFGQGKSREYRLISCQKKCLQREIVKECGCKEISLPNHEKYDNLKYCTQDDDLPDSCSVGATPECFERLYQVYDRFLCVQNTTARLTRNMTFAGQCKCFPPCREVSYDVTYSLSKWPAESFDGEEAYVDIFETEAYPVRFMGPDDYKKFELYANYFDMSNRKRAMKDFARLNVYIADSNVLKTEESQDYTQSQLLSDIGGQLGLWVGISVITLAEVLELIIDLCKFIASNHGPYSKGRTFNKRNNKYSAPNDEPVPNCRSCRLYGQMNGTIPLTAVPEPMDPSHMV

[2] = target: T1, MGIC (Myoinhibitory peptide-Gated Ion Channel; ENaC5); assay: two-electrode voltage clamp, Xenopus oocytes; type: cell-based; settings: read-out: % of control current at 50 μM

IC50 [1]	remaining activity at 50 µM [2]	SMILES
13 ± 2 µM	–	N=C(N)NC(=O)c1nc(Cl)c(N)nc1N [amiloride]
–	74 ± 3%	NC(=NC(=O)c1nc(Cl)c(N)nc1N)NCc1ccccc1 [benzamil]
0.73 ± 0.16 µM	–	N=C(N)c1ccc(/N=N/Nc2ccc(C(=N)N)cc2)cc1 [diminazene]
–	45 ± 4%	NC(=NC(=O)c1nc(Cl)c(N)nc1N)Nc1ccccc1 [phenamil]
